Measured values reported in US20250197408A1, “CRYSTALLINE FORMS AND SALTS OF A PI3K INHIBITOR AND METHODS OF MAKING AND METHODS OF USE THEREOF” (Totus Medicines Inc., priority 2022, published 2025).

What was measured:
[1] = Solubility in 7 aqueous pH buffers and bio-relevant fluids at 37° C. (HPLC of supernatant; residual solids by XRPD); format: physicochemical
Description: 20 mg of the free base Form A of Compound I was weighed into a 20 mL glass vial. Amounts of the salts equivalent to 20 mg anhydrous free base were weighed into a glass vial. 10 mL of solubility medium was added. The resulting suspensions/solutions were stirred at 37° C. at 400 rpm and sampled at 2 hours and at 24 hours, respectively. The samples were centrifuged at 37° C. at 14,000 rpm for 5 min. Supernatants were analyzed by HPLC and pH meter for solubility and pH value, respectively. Residual solids (wet cakes) from the 24 hours samples were also characterized by XRPD to determine physical form.
Residual solids after the solubility test were analyzed by XRPD.

[2] = Dynamic vapor sorption (DVS) analysis at 25° C.; format: physicochemical
Description: In one embodiment, the crystalline forms are characterized by Dynamic Vapor Sorption (DVS). The DVS profile is typically expressed by a diagram plotting the sample relative humidity (RH) versus the change in mass (%). The DVS profile provides information on hygroscopicity of the crystalline form at different RH conditions.
A DVS (dynamic vapor sorption) analysis at 25° C. was carried out on Form A** of Compound I benzenesulfonate salt as shown in FIG. 3D.

[3] = ES1, pH 1.2 HCl solution (0.1N), 37° C.
[4] = ES2, pH 4.5 acetate buffer (50 mM), 37° C.
[5] = ES3, pH 6.8 phosphate buffer (50 mM), 37° C.
[6] = ES4, pH 7.4 phosphate buffer (50 mM), 37° C.

In the case of `C=CC(=O)NCC(=O)N1CCN(Cc2cc3c(N4CCOCC4)nc(-c4cnc(NC(=O)OC)cc4C(F)(F)F)nn3c2)CC1.O=C(O)/C=C\C(=O)O` [Form B* of Compound I maleate salt, Methyl (5-(6-((4-(acryloylglycyl)piperazin-1-yl)methyl)-4-morpholinopyrrolo[2,1-f][1,2,4]triazin-2-yl)-4-(trifluoromethyl)pyridin-2-yl) carbamate maleate salt], the “Solubility for 2 h” value [1, 3] is reported as 1400 µg/mL, the “pH of supernatant, solubility for 2 h (pH)” value (from here on “pH … for 2 h (pH)”) [1, 3] is reported as “(1.3)” and the “Solubility for 24 h” value [1, 3] is reported as 1500 µg/mL. For the same molecule, the “pH of supernatant, solubility for 24 h (pH)” value (“pH … for 24 h (pH)” below) [1, 3] was “(1.3)”, the “Solubility for 2 h” value [1, 4] was over 2000 µg/mL and the “pH … for 2 h (pH)” value [1, 4] was “(4.5)”. For the same molecule, the “Solubility for 24 h” value [1, 4] was 300 µg/mL, the “pH … for 24 h (pH)” value [1, 4] was “(4.5)” and the “Solubility for 2 h” value [1, 5] was 6.6 µg/mL. For the same molecule, the “pH … for 2 h (pH)” value [1, 5] was “(6.6)”, the “Solubility for 24 h” value [1, 5] was 4.7 µg/mL and the “pH … for 24 h (pH)” value [1, 5] was “(6.6)”. For the same molecule, the “Solubility for 2 h” value [1, 6] was 1.5 µg/mL, the “pH … for 2 h (pH)” value [1, 6] was “(7.3)” and the “Solubility for 24 h” value [1, 6] was 1.4 µg/mL. For the same molecule, the “pH … for 24 h (pH)” value [1, 6] was “(7.3)”, the “Solubility for 2 h” value ([1]; ES5, SGF, pH 2.0, 37° C.) was over 2000 µg/mL and the “pH … for 2 h (pH)” value ([1]; ES5, SGF, pH 2.0, 37° C.) was “(2.0)”. The “Solubility for 24 h” value ([1]; ES5, SGF, pH 2.0, 37° C.) was over 2000 µg/mL, the “pH … for 24 h (pH)” value ([1]; ES5, SGF, pH 2.0, 37° C.) was “(2.0)” and the “Solubility for 2 h” value ([1]; ES6, FaSSIF-v1, pH 6.5, 37° C.) was 22.9 µg/mL. The “pH … for 2 h (pH)” value ([1]; ES6, FaSSIF-v1, pH 6.5, 37° C.) was “(6.1)”, the “Solubility for 24 h” value ([1]; ES6, FaSSIF-v1, pH 6.5, 37° C.) was 16.2 µg/mL and the “pH … for 24 h (pH)” value ([1]; ES6, FaSSIF-v1, pH 6.5, 37° C.) was “(6.1)”. The “Solubility for 2 h” value ([1]; ES7, FeSSIF-v1, pH 5.0, 37° C.) was 1100 µg/mL, the “pH … for 2 h (pH)” value ([1]; ES7, FeSSIF-v1, pH 5.0, 37° C.) was “(5.0)” and the “Solubility for 24 h” value ([1]; ES7, FeSSIF-v1, pH 5.0, 37° C.) was 1000 µg/mL. For the same molecule, the “pH … for 24 h (pH)” value ([1]; ES7, FeSSIF-v1, pH 5.0, 37° C.) was “(5.0)”, the “hygroscopicity / water sorption behavior (DVS)” value [2] was “nearly monotonic water sorption-desorption behavior depending on RH” and the “solid form of the sample after the DVS test” value [2] was “still Form B* of Compound I maleate salt”. For the same molecule, the “water uptake (DVS)” value ([2]; from 40% to 90% RH) was 2.7%.
